How the values were obtained:
[1] = target: human EP3 receptor (Homo sapiens (Human), UniProt P43115); test: EP3 Radioligand SPA Binding Assay; conditions: [3H]-PGE2 displacement, Millipore EP3 Chem1 membranes; geometric mean; Ki from IC50 by Cheng-Prusoff
Experimental: To measure the ability of test compounds in the present invention to bind to the human EP3 receptor, and therefore have the potential to antagonize PGE2 activity, radioligand displacement assays were performed. Compound affinity was expressed as a Ki value, defined as the concentration of compound required to decrease [^3H] PGE2 binding by 50% for a specific membrane batch at a given concentration of radioligand.
Test compounds were half log serially diluted in 100% DMSO (J. T. Baker #922401). 1 μL of each compound was added to appropriate wells of a 384-well plate (Matrix Cat #4322). Unlabeled PGE2 (Tocris Cat #2296) at a final concentration of 1 μM was used to determine non-specific binding. 1 μL of 100% DMSO (J. T. Baker #922401) was used to determine total binding. Millipore EP3 Chem1 membranes (prepared in-house from cell paste derived from the Millipore ChemiSCREEN™ Human Recombinant EP3 Prostanoid Receptor Calcium-Optimized Stable Cell Line (Millipore Cat # HTS092C, http://www.millipore.com/catalogue/item/hts092c)) were thawed and diluted in binding buffer (50 mM Hepes pH 7.4 (Lonza Cat #17-737), 5 mM MgCl2 (Sigma-M1028), and 0.1% BSA (Sigma A-7409)) to a final concentration of 1 μg/25 μL. 25 μL of diluted membranes were added to prepared compound plates. WGA coated PVT SPA Beads (Perkin Elmer Cat # RPNQ0060) were diluted in binding buffer to a concentration of 4 μg/ul, and 25 μL of the SPA bead mixture was then added to each well for a final assay concentration of 100 μg/well. [^3H]-PGE2 (Perkin Elmer Cat #NET428) was diluted in binding buffer to a concentration of […], and […] was added to all wells for a final assay concentration of 1.125 nM. Plates were incubated for 30 minutes at r.t. (approximately 25° C.) with shaking. Radioactivity associated with each well was measured after a 10 hour incubation using a Wallac Trilux MicroBeta plate-based scintillation counter and a normalized protocol at 1 minute read/well. The Kd for [^3H]-PGE2 was determined by carrying out saturation binding, with data analysis by non-linear regression, fit to a one-site hyperbola (GraphPad Prism®). IC50 determinations were made from competition curves, analyzed with a proprietary curve fitting program (SIGHTS), similar to GraphPad PRISM® and a 4-parameter logistic dose response equation. Ki values were calculated from IC50 values, using the Cheng-Prusoff equation.
Table 5 below provides the Ki values of Examples for the binding affinity against human EP3 in accordance with the above-described assay. Results are reported as geometric mean Ki values, where the example is identified as a free base or designated salt that is made as a solution for the experiment and N is the number of samples tested for that example and is the sum of the forms identified with the corresponding number of the respective form in parentheses.

[2] = target: human prostaglandin E3 receptor (EP3) (Homo sapiens (Human), UniProt P43115); test: Functional activity: cellular cAMP HTRF assay, antagonism of sulprostone; assay type: cell-based; conditions: CHO-K1 cells expressing human EP3; cAMP with 10 nM sulprostone and forskolin; geometric mean
Sequence of human prostaglandin E3 receptor (EP3) (P43115 whole entry): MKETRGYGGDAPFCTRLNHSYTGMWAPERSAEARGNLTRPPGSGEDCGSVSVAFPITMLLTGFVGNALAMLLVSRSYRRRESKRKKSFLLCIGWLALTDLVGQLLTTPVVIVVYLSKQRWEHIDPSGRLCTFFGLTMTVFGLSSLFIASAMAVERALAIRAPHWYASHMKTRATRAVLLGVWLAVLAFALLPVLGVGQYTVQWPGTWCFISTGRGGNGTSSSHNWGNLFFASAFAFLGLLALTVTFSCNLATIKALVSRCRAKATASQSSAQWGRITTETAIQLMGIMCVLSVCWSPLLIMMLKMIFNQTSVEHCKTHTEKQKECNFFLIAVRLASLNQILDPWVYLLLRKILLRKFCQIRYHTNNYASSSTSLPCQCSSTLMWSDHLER
Experimental: The functional activity of two Examples was determined by measuring the effect on cellular cAMP levels, under conditions whereby antagonism of the EP3 receptor could be measured. Compound activity was expressed as an IC50 value, defined as the concentration of compound required to decrease agonist (sulprostone) activity by 50%. CHO-K1 cells expressing human prostaglandin E3 receptor (EP3, DiscoveRx #95-0159C2) were maintained in Ham's F-12 Nutrient Mixture (Invitrogen #11765-054) containing L-Glutamine (Gibco #25030-081), Geneticin (Gibco #10131-027), Pen Strep (Gibco #15070-063) and 10% heat-inactivated fetal bovine serum (Sigma #F4135). […] Cellular cAMP levels were determined using a Homogeneous Time-Resolved Fluorescence (HTRF) cAMP detection kit (cAMP HI-Range Assay Kit; CisBio #62AM6PEJ). […] The assay plates were then held at r.t. and after 60 minutes, changes in the HTRF signal were read with an Envision 2104 multi-label plate reader using excitation of 330 nm and emissions of 615 and 665 nm. Raw data were converted to nM cAMP by interpolation from a cAMP standard curve (as described in the cAMP detection kit protocol) and IC50 determinations were made from the response curves analyzed with a curve fitting program, similar to GraphPad PRISM® and using a 4-parameter logistic dose response equation. […]

Sequence of human EP3 receptor (P43115 whole entry): as above

| Compound | Ki [1] [nM] | IC50 [2] [nM] |
| --- | --- | --- |
| Cc1cccc2ncc(-c3ccc([C@@]4(C)CCCNC4=O)c(=O)[nH]3)cc12 [Example 1, (R)-3-(3-Methyl-2-oxopiperidin-3-yl)-6-(5-methylquinolin-3-yl)pyridin-2(1H)-one] | 3.3 | 30.8 |
| Cc1cc(-c2ccc([C@@]3(C)CCCNC3=O)c(=O)[nH]2)cc2ncccc12 [Example 2, (R)-3-(3-Methyl-2-oxopiperidin-3-yl)-6-(5-methylquinolin-7-yl)pyridin-2(1H)-one] | 7.2 | – |
| CCc1cc(-c2ccc([C@@]3(C)CCCNC3=O)c(=O)[nH]2)cc2ncccc12 [Example 3, (R)-6-(5-Ethylquinolin-7-yl)-3-(3-methyl-2-oxopiperidin-3-yl)pyridin-2(1H)-one] | 4.6 | – |
| C[C@]1(c2ccc(-c3cc(Cl)c4cccnc4c3)[nH]c2=O)CCCNC1=O [Example 4, (R)-6-(5-Chloroquinolin-7-yl)-3-(3-methyl-2-oxopiperidin-3-yl)pyridin-2(1H)-one] | 8.9 | – |

Further lines, results first:

| Ki [1] [nM] | IC50 [2] [nM] | Compound |
| --- | --- | --- |
| 7.3 | – | C[C@]1(c2ccc(-c3cc(C4CC4)c4cccnc4c3)[nH]c2=O)CCCNC1=O [Example 5, (R)-6-(5-Cyclopropylquinolin-7-yl)-3-(3-methyl-2-oxopiperidin-3-yl)pyridin-2(1H)-one] |
| 48.6 | – | C[C@]1(c2ccc(-c3cc(F)c4cccnc4c3)[nH]c2=O)CCCNC1=O [Example 6, (R)-6-(5-Fluoroquinolin-7-yl)-3-(3-methyl-2-oxopiperidin-3-yl)pyridin-2(1H)-one] |
| 18.6 | 34.1 | Cc1cccc2ncc(-c3ccc([C@@]4(C)CCNC4=O)c(=O)[nH]3)cc12 [Example 7, (R)-3-(3-Methyl-2-oxopyrrolidin-3-yl)-6-(5-methylquinolin-3-yl)pyridin-2(1H)-one] |

From patent US9738626B2, “Antagonists of prostaglandin EP3 receptor” (Pfizer Inc., priority 2014, dated 2017)
